This passage reports IC50 results from patent publication EP2208725A1, “Novel specific inhibitors of ubiquitin specific protease 7, the pharmaceutical compositions thereof and their therapeutic applications” (Hybrigenics S.A., priority 2009, dated 2010).

For one assay, the target named is T1, Caspase 3 (Homo sapiens, UniProt P42574).
T1 sequence (P42574 29-175 limits assumed): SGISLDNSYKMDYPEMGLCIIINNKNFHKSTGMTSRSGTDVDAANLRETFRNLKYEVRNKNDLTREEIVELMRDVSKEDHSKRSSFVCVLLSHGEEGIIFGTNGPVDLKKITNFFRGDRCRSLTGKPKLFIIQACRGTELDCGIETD
T1 sequence (P42574 176-277 limits assumed): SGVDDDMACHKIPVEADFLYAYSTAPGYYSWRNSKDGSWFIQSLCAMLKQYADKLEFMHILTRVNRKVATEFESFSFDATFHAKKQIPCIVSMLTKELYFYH
Description: Caspase 3 activity assay (Ac-DEVD-AMC). The assay is classed as biochemical. Conditions: 250 nM Ac-DEVD-AMC, 1.6 nM enzyme; compounds tested from 200 µM to 91 nM; unit inferred; read-out: Inhibition of cysteine protease activities: Casp3. The protocol: Caspase 3 was diluted in Caspase 3 buffer (100 mM Hepes pH 7.5; 10% sucrose; 0.1% CHAPS). Compounds stocks (100 mM) were stored at -20°C in DMSO. Compounds were tested at different concentrations: from 200 µM to 91 nM. Reactions were performed as duplicates in Black LJL 96 well plates (HE microplates; Molecular Devices; 20 µl final reaction volume). The substrate concentration for caspase 3 specificity assay was 250 nM (Ac-DEVD-AMC; Promega). The concentration of the enzyme (Caspase 3) in specificity assays was 1.6 nM. The concentrations were determined in order to perform specificity assays under initial velocities at fixed substrate concentration. Compounds were pre-incubated with enzymes for 30 minutes at 25°C. Reactions were initiated by addition of substrate to the plates containing the enzymes (+/- compounds) diluted in assay buffer. Reactions were incubated for 60 minutes at 37°C. Reactions were stopped by adding acetic acid (100 mM final). Readings were performed on a Pherastar Fluorescent Reader (BMG). λ Emission 380 nm; λ Excitation = 460 nm. Data (mean values +/- standard deviation) were analyzed as % of control (no compound) and plotted as percentage versus the Log of the compound concentration using GraphPad (Prism). Data were fitted to a sigmoidal model (variable slope).

Another assay addresses T2, USP5 (Homo sapiens, UniProt P45974).
T2 sequence (P45974 1-858): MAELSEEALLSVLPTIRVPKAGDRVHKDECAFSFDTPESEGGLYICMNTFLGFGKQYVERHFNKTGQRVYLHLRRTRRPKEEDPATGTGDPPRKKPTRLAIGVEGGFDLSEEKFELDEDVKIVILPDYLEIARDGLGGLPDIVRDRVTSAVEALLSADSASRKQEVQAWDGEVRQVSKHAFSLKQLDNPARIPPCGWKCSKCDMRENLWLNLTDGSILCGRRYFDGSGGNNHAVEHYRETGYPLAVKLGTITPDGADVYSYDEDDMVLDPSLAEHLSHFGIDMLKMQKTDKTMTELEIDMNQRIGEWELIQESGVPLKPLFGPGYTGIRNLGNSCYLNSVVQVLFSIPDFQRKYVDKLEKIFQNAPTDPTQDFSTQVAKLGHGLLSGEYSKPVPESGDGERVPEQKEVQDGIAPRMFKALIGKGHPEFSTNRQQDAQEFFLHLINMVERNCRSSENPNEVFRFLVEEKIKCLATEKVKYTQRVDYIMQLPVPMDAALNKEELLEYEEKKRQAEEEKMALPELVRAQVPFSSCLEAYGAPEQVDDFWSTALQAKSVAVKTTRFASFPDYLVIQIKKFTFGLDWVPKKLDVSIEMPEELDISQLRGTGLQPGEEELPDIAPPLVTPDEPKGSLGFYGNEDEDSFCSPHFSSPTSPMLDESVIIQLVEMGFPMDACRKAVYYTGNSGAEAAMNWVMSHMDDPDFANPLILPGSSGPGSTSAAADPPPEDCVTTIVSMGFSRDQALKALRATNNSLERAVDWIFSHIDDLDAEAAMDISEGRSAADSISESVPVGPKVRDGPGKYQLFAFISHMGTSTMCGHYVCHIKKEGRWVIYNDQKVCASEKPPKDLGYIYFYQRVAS
Description: USP5 activity assay (Ub-AMC). The assay is classed as biochemical. The note with it: 300 nM Ub-AMC, 300 pM enzyme; compounds tested from 200 µM to 91 nM; unit inferred; read-out: Inhibition of cysteine protease activities: USP 5. The protocol: USP5 was diluted in USP buffer (50 mM Tris HCl; 0.5 mM EDTA; 5 mM DTT; 0.01% Triton X-100; Bovine Serum Albumin 0.05 mg.ml^-1 pH 7.6). Compounds stocks (100 mM) were stored at -20°C in DMSO. Compounds were tested at different concentrations: from 200 µM to 91 nM. Reactions were performed as duplicates in Black LJL 96 well plates (HE microplates; Molecular Devices; 20 µl final reaction volume). The substrate concentration for USP5 was 300 nM Ub-AMC (Boston Biochem). The concentrations of the enzyme (USP5) in specificity assays was 300 pM. The concentrations were determined in order to perform specificity assays under initial velocities at fixed substrate concentration. Compounds were pre-incubated with enzymes for 30 minutes at 25°C. Reactions were initiated by addition of substrate to the plates containing the enzymes (+/- compounds) diluted in assay buffer. Reactions were incubated for 60 minutes at 37°C. Reactions were stopped by adding acetic acid (100 mM final). Readings were performed on a Pherastar Fluorescent Reader (BMG). λ Emission 380 nm; λ Excitation = 460 nm. Data (mean values +/- standard deviation) were analyzed as % of control (no compound) and plotted as percentage versus the Log of the compound concentration using GraphPad (Prism). Data were fitted to a sigmoidal model (variable slope).

Consider `CC(=O)C1=C(O)C(=O)N(CCc2ccc(Cl)cc2)C1c1ccc(Br)cc1` (centres unmarked) [Example 25, 4-acetyl-5-(4-bromo-phenyl)-1-[2-(4-chloro-phenyl)-ethyl]-3-hydroxy-1,5-dihydro-pyrrol-2-one], for which the IC50 at Caspase 3 and at USP5 was above 200 µM throughout.

For the compound `CC(=O)C1=C(O)C(=O)N(CCc2ccc(Br)cc2)C1c1ccc(Br)cc1` (centres unmarked) [Example 26, 4-acetyl-5-(4-bromo-phenyl)-1-[2-(4-bromo-phenyl)-ethyl]-3-hydroxy-1,5-dihydro-pyrrol-2-one], the IC50 on Caspase 3 and on USP5 was above 200 µM in each case.

As for `CC(=O)C1=C(O)C(=O)N(CCc2ccc(Cl)c(Cl)c2)C1c1ccc(Br)cc1` (centres unmarked) [Example 28, 4-acetyl-5-(4-bromo-phenyl)-1-[2-(3,4-dichloro-phenyl)-ethyl]-3-hydroxy-1,5-dihydro-pyrrol-2-one], the IC50 at Caspase 3 and on USP5 was above 200 µM in each case.

As to `COc1cccc(CCN2C(=O)C(O)=C(C(C)=O)C2c2ccc(Br)cc2)c1` (centres unmarked) [Example 30, 4-acetyl-5-(4-bromo-phenyl)-3-hydroxy-1-[2-(3-methoxyphenyl)-ethyl]-1,5-dihydro-pyrrol-2-one], the IC50 at Caspase 3 and at USP5 was above 200 µM in each case.

Consider `COc1ccc(CCN2C(=O)C(O)=C(C(C)=O)C2c2ccc(Br)cc2)cc1` (centres unmarked) [Example 32, 4-acetyl-5-(4-bromo-phenyl)-3-hydroxy-1-[2-(4-methoxyphenyl)-ethyl]-1,5-dihydro-pyrrol-2-one], for which the IC50 on Caspase 3 and at USP5 was above 200 µM throughout.

`CC(=O)C1=C(O)C(=O)N(CCc2ccc(F)cc2)C1c1ccc(Br)cc1` (centres unmarked) [Example 33, 4-acetyl-5-(4-bromo-phenyl)-3-hydroxy-1-[2-(4-fluorophenyl)-ethyl]-1,5-dihydro-pyrrol-2-one]: the IC50 on Caspase 3 and on USP5 was above 200 µM in each case.

Consider `CCOc1ccc(CCN2C(=O)C(O)=C(C(C)=O)C2c2ccc(Br)cc2)cc1` (centres unmarked) [Example 34, 4-acetyl-5-(4-bromo-phenyl)-3-hydroxy-1-[2-(4-ethoxy-phenyl)-ethyl]-1,5-dihydro-pyrrol-2-one], for which the IC50 at Caspase 3 and at USP5 was above 200 µM each time.

On to `CC(=O)C1=C(O)C(=O)N(CCc2ccccc2)C1c1ccc2c(c1)OCO2` (centres unmarked) [Example 37, 4-acetyl-5-benzo[1,3]dioxol-5-yl-3-hydroxy-1-phenethyl-1,5-dihydro-pyrrol-2-one], for which the IC50 at Caspase 3 and at USP5 was above 200 µM throughout.

For the compound `CC(=O)C1=C(O)C(=O)N(CCc2ccccc2)C1c1ccc(Br)c(Br)c1` (centres unmarked) [Example 41, 4-acetyl-5-(3,4-dibromo-phenyl)-3-hydroxy-1-phenethyl-1,5-dihydro-pyrrol-2-one], the IC50 on Caspase 3 and on USP5 was above 200 µM throughout.

On to `CC(=O)C1=C(O)C(=O)N(CCc2ccccc2)C1c1cccnc1Cl` (centres unmarked) [Example 42, 4-acetyl-5-(2-chloro-pyridin-3-yl)-3-hydroxy-1-phenethyl-1,5-dihydro-pyrrol-2-one], for which the IC50 on Caspase 3 and at USP5 was above 200 µM in each case.

Consider `CC(=O)C1=C(O)C(=O)N(CCc2ccc(Br)cc2)C1c1ccc(Cl)cc1` (centres unmarked) [Example 45, 4-Acetyl-5-(4-chlorophenyl)-1-[2-(4-bromophenyl)-ethyl]-3-hydroxy-1,5-dihydro-pyrrol-2-one], for which the IC50 on Caspase 3 and at USP5 was above 200 µM in each case.

In the case of `CC(=O)C1=C(O)C(=O)N(CCc2ccc(Cl)cc2)C1c1ccc(Cl)cc1` (centres unmarked) [Example 46, 4-Acetyl-5-(4-chlorophenyl)-1-[2-(4-chlorophenyl)-ethyl]-3-hydroxy-1,5-dihydro-pyrrol-2-one], the IC50 on Caspase 3 and on USP5 was above 200 µM throughout.

Consider `CC(=O)C1=C(O)C(=O)N(CCc2ccc(Cl)cc2Cl)C1c1ccc(Br)cc1` (centres unmarked) [Example 47, 4-Acetyl-5-(4-bromophenyl)-1-[2-(2,4-dichlorophenyl)-ethyl]-3-hydroxy-1,5-dihydro-pyrrol-2-one], for which the IC50 at Caspase 3 and on USP5 was above 200 µM in each case.
